Structures can show the parent of a compound that is named as a salt. Where two headings read alike, the source gives them in different places.
What was measured:
[1] = target: T1, sphingosine kinase 2 (SK2) (Homo sapiens, UniProt Q9NRA0); assay: In vitro inhibition of purified recombinant sphingosine kinase 2; format: biochemical; details: purified recombinant enzyme
T1 sequence (Q9NRA0 1-654): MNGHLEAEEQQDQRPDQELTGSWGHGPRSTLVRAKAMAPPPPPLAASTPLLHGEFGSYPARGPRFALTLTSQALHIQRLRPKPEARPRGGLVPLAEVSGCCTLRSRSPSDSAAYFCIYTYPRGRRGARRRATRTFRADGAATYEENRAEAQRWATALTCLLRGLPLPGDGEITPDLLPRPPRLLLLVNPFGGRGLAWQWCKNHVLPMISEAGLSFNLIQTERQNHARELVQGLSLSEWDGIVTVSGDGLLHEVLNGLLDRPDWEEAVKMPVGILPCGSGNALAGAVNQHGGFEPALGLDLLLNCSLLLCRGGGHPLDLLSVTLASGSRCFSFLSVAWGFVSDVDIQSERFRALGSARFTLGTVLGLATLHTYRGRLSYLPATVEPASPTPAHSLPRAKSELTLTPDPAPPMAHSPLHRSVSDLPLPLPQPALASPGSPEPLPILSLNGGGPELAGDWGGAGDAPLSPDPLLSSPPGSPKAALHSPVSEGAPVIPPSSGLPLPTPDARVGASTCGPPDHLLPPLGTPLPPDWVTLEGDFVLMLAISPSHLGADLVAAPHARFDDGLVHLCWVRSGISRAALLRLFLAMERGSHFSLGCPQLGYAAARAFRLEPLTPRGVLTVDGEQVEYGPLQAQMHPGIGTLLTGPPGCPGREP

[2] = target: sphingosine kinase 1 (SK1) (Homo sapiens, UniProt Q9NYA1); assay: In vitro inhibition of purified recombinant sphingosine kinase 1; format: biochemical; details: purified recombinant enzyme
sphingosine kinase 1 (SK1), sequence (Q9NYA1 whole entry, species assumed): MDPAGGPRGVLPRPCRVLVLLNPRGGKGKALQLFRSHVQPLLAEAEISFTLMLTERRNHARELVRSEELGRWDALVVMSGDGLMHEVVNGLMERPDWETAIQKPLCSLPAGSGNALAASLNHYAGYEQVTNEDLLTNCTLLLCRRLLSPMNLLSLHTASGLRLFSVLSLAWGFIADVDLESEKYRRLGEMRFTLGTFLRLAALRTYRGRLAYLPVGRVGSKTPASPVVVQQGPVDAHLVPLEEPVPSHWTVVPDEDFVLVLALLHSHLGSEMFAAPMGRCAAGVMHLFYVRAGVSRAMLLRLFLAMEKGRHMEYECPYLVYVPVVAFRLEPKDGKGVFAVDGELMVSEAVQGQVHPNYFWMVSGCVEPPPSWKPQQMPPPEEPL

[3] = tested on: MCF7 cells; assay: Endogenous ceramide level in cells after treatment; format: cell-based, human; details: 24 hour treatment, 0-25 μM, FIG. 7
Excerpt: The administration of guanidino-sphingosines to mammalian cells at concentrations capable of inhibiting SK1 or SK2 were also found to increase the level of endogenous Cer in the cells.

[4] = tested on: prostate cancer (DU145) cells over-expressing acid ceramidase; assay: BD FALCON FLUOROBLOK migration assay; format: cell-based, human; details: 5 μM pretreatment overnight; 16/24 hours incubation; FIG. 8
Experimental: NT represents non-treated cells.
The presently disclosed guanidino-sphingosines were determined to be capable of inhibiting cell migration of cancer cells overexpressing acid ceramidase. The BD™ FALCON™ (Becton Dickinson and Company, Franklin Lakes, N.J., United States of America) migration assay (using FLUOROBLOK™ polyethylene terphthalate (PET) inserts (8.0 μm)) was performed with prostate cancer (DU145) cells over-expressing acid ceramidase. […] After labeling the cells with carboxyfluorescein diacetate succinimidyl ester fluorscent dye (CFMDA), the cells were seeded on the top well of BDTM FLUOROBLOK™ PET membrane collagen-coated inserts. The negative control consisted of serum free media loaded in the bottom well and 10% FCS-enriched media was used as the positive control. After 16/24 hours incubation, the plate was read from the bottom (485/530 nm) and fluorescence was quantified.

SMILES | IC50 [1] | IC50 ([2]; read-out: In Vitro IC50 on Sphingosine Kinase 1) | endogenous C16-ceramide levels [3] | IC50 ([2]; read-out: IC50 on SK1) | migration rate of DU145 cells [4]
CCCCCCCCCCCCC/C=C/[C@@H](O)[C@H](CO)NC(=N)N [LCL146, D-erythro-2-N-(1′-carboxamidino)-sphingosine hydrochloride] | 740 nM | 420 nM | elevation |  | 
CCCCCCCCCCCCC/C=C/[C@H](O)[C@@H](CO)NC(=N)N [LCL351, L-erythro-2-N-(1′-carboxamidino)-sphingosine hydrochloride] | 300 nM |  | elevation | 40 nM | decreases the migration rate

Reference: US20120035268A1, “SPHINGO-GUANIDINES AND THEIR USE AS INHIBITORS OF SPHINGOSINE KINASE” (priority 2008, published 2012)
